“Also recorded” adds a separate entry of the source. Peptide text beside a SMILES is read from it.
How the values were obtained:
[1] = approximate class bounds given as e.g.; cited from earlier work
[2] = stabilization of citral to sunlight, off-notes by SPME GC/TOF-MS (Example 40A); type: physicochemical
Source text: The encapsulated citral products of Example 19 were studied by exposure to summer sun for 7 days as in the above example, but with the goal of monitoring thermal and photo oxidation products using two different concentrations of cyclodextrins. […] The citral complexes were studied at two different concentrations and were designed to deliver a constant citral level when used at 0.1 wt % or 0.2 wt % in acidic beverage base consisting of 10% sucrose and 0.5% citric acid. A 0.1 wt % citral in ethanol was used as a control. 500 ml of each sample was prepared and divided into six (6) four (4) oz samples with no allowed headspace and sealed. Analysis was preformed using SPME and a LECO Pegasus III GC/TOF-MS as previously reported; samples were analyzed in triplicate using a “Latin Square” sampling protocol.

[3] = color stability of red 40 in vitamin fortified beverage exposed to light (Examples 39-40); type: physicochemical; details: south facing window, exposure to light
Source text: The mixture is returned to the original container and sealed. The sealed bottle is place in a south facing window for 5-6 weeks or until color changes are noted. Excess beverage is stored refrigerated in glass.

[4] = stabilization of citral in citric acid solution with added uncomplexed cyclodextrin (Example 20); type: physicochemical; details: 0.1 or 0.2 wt % cyclodextrin, 40 or 90 degrees F., 18-48 hours
Description: Citral (natural citral, SAP No. 921565, Lot No. 10000223137, available from Citrus & Allied) was cut in ethanol and diluted in citric acid to obtain a desired flavor level (e.g., 3 mL (1% citral in EtOH) per 2 L 0.6% citric acid; designated as “control” or “control freshly made” in Table 2). […] The raw area counts of various forms of citral or character-impact citrus flavor compounds (i.e., neral, geranial, and citral total, the sum of neral and geranial), and a variety of other compounds, including common citrus flavor off-note chemicals (e.g., carveol, p-cymene or p-cymene-8-ol, p,a-dimethyl styrene, mentha-1,5-dien-8-ol 1, and mentha-a,5-dien-8-ol 2) and chlorocyclohexane internal standard (designated as “CCH int std” in Table 2) were measured for each permutation of the experiment, as shown in Table 2. As used herein, the term “raw area counts” is used to refer to the area under the curve of a corresponding portion of a gas chromatogram when the samples are analyzed using a gas chromatography-mass spectrometry analysis, namely, a PEGASUS II Time-of-flight mass spectrometer (TOF-MS; available from LECO Corp., St. Joseph, Mich.). The chlorocyclohexane internal standard was included at 10 ppm per beverage to attempt to normalize the raw area counts of the other compounds of interest.

**Q.** For CC1=C(O)C(=O)C(C)O1 (centres unmarked) [furaneol, 4-hydroxy-2,5-dimethyl-3(2H) furanone], which “log(P) value (class of guest)” value [1] is on record?
**A.** less than about 1 but greater than zero

**Q.** For hydroxypropyl-β-cyclodextrin, which “preventing flavor offnotes, compared with β-cyclodextrin” value [2] is on record?
**A.** less effective than β-cyclodextrin in preventing flavor offnotes

**Q.** What about the “color stability (red 40)” value [3] of the same compound?
**A.** superior color stability

**Q.** And the “color stability (red 40)” value ([3]; listed as hydroxyl propyl β-cyclodextrin)?
**A.** best

**Q.** With CCc1occc(=O)c1O [ethyl maltol] as the compound, how does the “log(P) value (class of guest)” value [1] read?
**A.** less than about 1 but greater than zero

**Q.** With COC(=O)[C@H](Cc1ccccc1)NC(=O)[C@@H](N)CC(=O)O [aspartame] (H-Asp-Phe-OMe) as the compound, how does the “log(P) value (class of guest)” value [1] read?
**A.** less than about 1 but greater than zero

**Q.** With COc1cc(S(=O)(=O)[O-])c(C)cc1N=Nc1c(O)ccc2cc(S(=O)(=O)[O-])ccc12.[Na+].[Na+] [red 40 color] as the compound, how does the “color stability (red 40)” value [3] read?
**A.** degrades upon exposure to light

**Q.** With OC[C@H]1O[C@@H]2O[C@H]3[C@H](O)[C@@H](O)[C@@H](O[C@H]4[C@H](O)[C@@H](O)[C@@H](O[C@H]5[C@H](O)[C@@H](O)[C@@H](O[C@H]6[C@H](O)[C@@H](O)[C@@H](O[C@H]7[C@H](O)[C@@H](O)[C@@H](O[C@H]1[C@H](O)[C@H]2O)O[C@@H]7CO)O[C@@H]6CO)O[C@@H]5CO)O[C@@H]4CO)O[C@@H]3CO [α-cyclodextrin] as the compound, how does the “amount of off-notes formed vs control” value [4] read?
**A.** off-note formation is inhibited

**Q.** Which “log(P) value (class of guest)” value [1] does the source give for CSC [dimethyl sulfide] here?
**A.** less than about 1 but greater than zero

**Q.** With OC[C@H]1O[C@@H]2O[C@H]3[C@H](O)[C@@H](O)[C@@H](O[C@H]4[C@H](O)[C@@H](O)[C@@H](O[C@H]5[C@H](O)[C@@H](O)[C@@H](O[C@H]6[C@H](O)[C@@H](O)[C@@H](O[C@H]7[C@H](O)[C@@H](O)[C@@H](O[C@H]8[C@H](O)[C@@H](O)[C@@H](O[C@H]1[C@H](O)[C@H]2O)O[C@@H]8CO)O[C@@H]7CO)O[C@@H]6CO)O[C@@H]5CO)O[C@@H]4CO)O[C@@H]3CO [β-cyclodextrin] as the compound, how does the “amount of citral in the solution vs control” value [4] read?
**A.** increased the amount of citral in the solution

**Q.** What about the “amount of off-notes formed vs control” value [4] of the same compound?
**A.** off-note formation is inhibited; also recorded: decreased the amount of off-notes formed
